Read-outs that look alike come from different tables or passages of the source.
Biological target: T1, CYP2B6 (Homo sapiens, UniProt P20813)
T1 construct: incubation mixtures containing pooled human liver microsomes (HLMs, XTreme 200, XenoTech); tissue XenoTech XTreme 200; host or cells: pooled human liver microsomes
T1 sequence (P20813 1-491): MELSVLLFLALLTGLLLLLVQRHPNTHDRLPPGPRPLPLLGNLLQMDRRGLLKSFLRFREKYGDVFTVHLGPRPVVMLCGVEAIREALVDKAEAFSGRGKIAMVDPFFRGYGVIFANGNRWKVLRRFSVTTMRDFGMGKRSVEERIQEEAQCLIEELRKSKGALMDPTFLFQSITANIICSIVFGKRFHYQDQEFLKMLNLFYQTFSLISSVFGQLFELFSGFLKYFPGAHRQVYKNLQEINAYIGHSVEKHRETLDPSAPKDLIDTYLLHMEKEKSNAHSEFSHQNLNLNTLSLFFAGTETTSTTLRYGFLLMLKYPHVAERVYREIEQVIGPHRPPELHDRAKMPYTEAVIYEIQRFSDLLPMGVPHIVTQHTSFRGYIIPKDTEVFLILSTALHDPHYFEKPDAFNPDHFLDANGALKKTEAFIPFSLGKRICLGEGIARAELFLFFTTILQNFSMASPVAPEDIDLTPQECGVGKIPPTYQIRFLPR
Assay: Inhibition of CYP2B6-catalyzed bupropion hydroxylation in pooled human liver microsomes
Format: in vitro ADME
Protocol: The inhibitory potential of the five biflavonoids on the metabolism of nine P450 probe substrates was evaluated using previously developed methods with minor modifications. Biflavonoids were dissolved in methanol. The final concentration of methanol in the incubation mixture was 1.0% (v/v). We used these P450 probe substrates: phenacetin for CYP1A2, coumarin for CYP2A6, bupropion for CYP2B6, amodiaquine for CYP2C8, diclofenac for CYP2C9, omeprazole for CYP2C19, dextromethorphan for CYP2D6, chlorzoxazone for CYP2E1 and midazolam for CYP3A (Table 1). […] The reaction was stopped by adding 50 μL of ice-cold acetonitrile containing 7 nM trimipramine (internal standard, IS). After centrifugation at 18,000 g (5 min, 4 °C), aliquots of supernatants were analyzed by LC-MS/MS (Shimadzu LCMS 8060 system, Shimadzu, Kyoto, Japan). All microsomal incubations were conducted in triplicate. We used HLMs to determine the mechanisms and constants (Ki values) for […] A inhibition of CYP1A2, CYP2B6, CYP2C8, CYP2C9 and CYP3A. […] The substrates were used at concentrations approximately near to their respective Km values. […] The other conditions were the same as in the cytochrome P450 inhibition study. […] Phenomenex, Torrance, CA, USA) and analyzed using a Shimadzu LCMS 8060 triple-quadrupole mass spectrometer coupled with a Nexera X2 ultra high-performance liquid chromatography system (Shimadzu, Kyoto, Japan) equipped with an electrospray ionization interface. The mobile phase consisted of 0.1% formic acid in water (A) and 0.1% formic acid in acetonitrile (B). […] The flow rate was 0.2 mL/min. Electrospray ionization was performed in positive-ion mode at 4000 V or in negative-ion mode at -3500 V. […] Quantitation was conducted in selected reaction monitoring (SRM) modes with the precursor-to-product ion transition for each metabolite (Table 1 and Table 2). We analyzed the data with Shimadzu LabSolution LC-MS software. The IC50 values were calculated by WinNonlin software (Pharsight, Mountain View, CA, USA). The type of inhibition and the apparent kinetic parameters for inhibitory activity (Ki) were determined by following several criteria: visual inspection of Dixon plots, Lineweaver-Burk double reciprocal plots, and secondary plots of Lineweaver-Burk plots versus biflavonoid concentrations, the size of the sum of squares of the residuals, Akaike Information Criteria values, the S.E. and 95% confidence interval of the parameter estimates from the nonlinear regression analysis using the WinNonlin software. The models tested included competitive, competitive partial, noncompetitive, noncompetitive partial, uncompetitive, uncompetitive partial, and mixed-type inhibition.

[1] = substrate bupropion 50 µM, pooled HLMs, read-out: IC50, P450 2B6

| SMILES | IC50 [1] [µM] | also measured |
| --- | --- | --- |
| CC(C)(O)c1ccccc1CC[C@@H](SCC1(CC(=O)O)CC1)c1cccc(/C=C/c2ccc3ccc(Cl)cc3n2)c1 [montelukast, reference compound] | > 50 | inhibition at 10 min, 5 µM (human, pooled human liver microsomes, probe bupropion, inhibitor 5 μM, pooled HLMs): 20.4% |
| O=c1cc(-c2ccc(O)c(-c3c(O)cc(O)c4c(=O)cc(-c5ccc(O)cc5)oc34)c2)oc2cc(O)cc(O)c12 [amentoflavone] |  | IC50: 7.1 µM |
| O=c1cc(-c2ccc(O)c(-c3c(O)cc4oc(-c5ccc(O)cc5)cc(=O)c4c3O)c2)oc2cc(O)cc(O)c12 [robustaflavone] | 5.7 |  |

The next lines start with results.

| IC50 [1] [µM] | SMILES | also measured |
| --- | --- | --- |
| 6.4 | O=c1cc(-c2ccc(O)c(-c3c(-c4ccc(O)cc4)oc4cc(O)cc(O)c4c3=O)c2)oc2cc(O)cc(O)c12 [taiwaniaflavone] |  |
| 5.3 | O=C1CC(c2cc(-c3c(O)ccc4c(=O)cc(-c5ccc(O)cc5)oc34)c(O)cc2O)Oc2cc(O)cc(O)c21 (stereo not drawn) [selamariscina A] | Mode of Inhibition, CYP2B6 bupropion (HLMs): Noncompetitive; Ki (HLMs, average ± standard error, triplicate): 7.9 ± 1.1 µM |
| 6.7 | O=c1cc(-c2ccc(O)cc2)oc2c(-c3c(O)cc(O)c4c(=O)cc(-c5ccc(O)cc5)oc34)c(O)cc(O)c12 [cupressuflavone] |  |

Reference: article PMC7238120, “Strong and Selective Inhibitory Effects of the Biflavonoid Selamariscina A against CYP2C8 and CYP2C9 Enzyme Activities in Human Liver Microsomes” (Pharmaceutics, 2020)
